Test results: patent US11970460B1, “4-(4,5-bis(4-bromophenyl)-2-phenyl-1H-imidazol-1-yl)benzoic acid as an antimicrobial compound” (KING FAISAL UNIVERSITY, priority 2023, dated 2024)

Tests used:
Escherichia coli = assay: Agar plate disc-diffusion, antibacterial activity (inhibition zone); assay type: cell-based; conditions: nutrient agar, 37° C., 48 h
Protocol: (§1) The agar plate disc-diffusion method was applied. […] The discs were then placed onto the surface of agar plates (nutrient agar for bacteria and Sabouraud's dextrose agar for fungi) seeded with the test organism. Each plate contained 15 mL of the agar medium, previously seeded with 0.2 mL of the broth culture of each organism pregrown for 18 hours. The plates were incubated at 37° C. for 48 h, and 72 h for fungi. The inhibition zones were measured in mm. Discs impregnated with DMSO were used as a control, and its inhibition zone was subtracted from the tested compound actual inhibition zone.

Pseudomonas aeruginosa = assay: as above; assay type: cell-based; conditions: nutrient agar, 37° C., 48 h
Protocol: as §1

Staphylococcus aureus = assay: as above; assay type: cell-based; conditions: nutrient agar, 37° C., 48 h
Protocol: as §1

Bacillus cereus = assay: as above; assay type: cell-based; conditions: nutrient agar, 37° C., 48 h
Protocol: as §1

[1] = system: Chrysosporium keratinophilum; assay: Agar plate disc-diffusion, antifungal activity (inhibition zone); assay type: cell-based; conditions: Sabouraud's dextrose agar, 37° C., 72 h
Protocol: as §1

Aspergillus flavus = assay: as above; assay type: cell-based; conditions: Sabouraud's dextrose agar, 37° C., 72 h
Protocol: as §1

[2] = A = concentration of comp. = 10,000 μL
[3] = B = concentration of comp. = 30,000 μL
[4] = C = concentration of comp. = 50,000 μL

With `O=C(O)c1ccc(-n2c(-c3ccccc3)nc(-c3ccc(Br)cc3)c2-c2ccc(Br)cc2)cc1` [V, 4-(4,5-bis(4-bromophenyl)-2-phenyl-1H-imidazol-1-yl)benzoic acid] the “inhibition zone, Escherichia coli, A” value (Escherichia coli; [2]) was 28 mm, the “inhibition zone, Escherichia coli, B” value (Escherichia coli; [3]) was 35 mm and the “inhibition zone, Escherichia coli, C” value (Escherichia coli; [4]) was 50 mm. The “inhibition zone, Pseudomonas aeruginosa, A” value (Pseudomonas aeruginosa; [2]) was 25 mm, the “inhibition zone, Pseudomonas aeruginosa, B” value (Pseudomonas aeruginosa; [3]) was 28 mm and the “inhibition zone, Pseudomonas aeruginosa, C” value (Pseudomonas aeruginosa; [4]) was 44 mm. The “inhibition zone, Staphylococcus aureus, A” value (Staphylococcus aureus; [2]) was 18 mm, the “inhibition zone, Staphylococcus aureus, B” value (Staphylococcus aureus; [3]) was 21 mm and the “inhibition zone, Staphylococcus aureus, C” value (Staphylococcus aureus; [4]) was 31 mm. The “inhibition zone, Bacillus Cereus, A” value (Bacillus cereus; [2]) was 24 mm, the “inhibition zone, Bacillus Cereus, B” value (Bacillus cereus; [3]) was 27 mm and the “inhibition zone, Bacillus Cereus, C” value (Bacillus cereus; [4]) was 39 mm. For the same molecule, the “inhibition zone, Chrysosporium keratinophilum, A” value [1, 2] was 27 mm, the “inhibition zone, Chrysosporium keratinophilum, B” value [1, 3] was 29 mm and the “inhibition zone, Chrysosporium keratinophilum, C” value [1, 4] was 48 mm. The “inhibition zone, Aspergillus flavus, A” value (Aspergillus flavus; [2]) was 23 mm, the “inhibition zone, Aspergillus flavus, B” value (Aspergillus flavus; [3]) was 27 mm and the “inhibition zone, Aspergillus flavus, C” value (Aspergillus flavus; [4]) was 33 mm. It also gave a melting point of 284 °C.
